Values of other authors in patent EP2561868A1 (Van Oosten, Anton Bernhard, priority 2011, dated 2013).
“Also recorded” adds a separate entry of the source.

Assays:
serum immunoglobulin = conditions: patient Z
[1] = test system: multiple myeloma and MGUS; conditions: patients with multiple myeloma and MGUS
bone marrow plasma cell = conditions: patient Z
[2] = not given; remark: listed apart in the source
P-glycoprotein = P-glycoprotein (Homo sapiens, UniProt P08183)
human CYP3A4 = human CYP3A4 (Homo sapiens, UniProt P08684)
[3] = curcumin 8000 - 14,000 mg, no HCQ

Chain of human CYP3A4 (P08684 whole entry): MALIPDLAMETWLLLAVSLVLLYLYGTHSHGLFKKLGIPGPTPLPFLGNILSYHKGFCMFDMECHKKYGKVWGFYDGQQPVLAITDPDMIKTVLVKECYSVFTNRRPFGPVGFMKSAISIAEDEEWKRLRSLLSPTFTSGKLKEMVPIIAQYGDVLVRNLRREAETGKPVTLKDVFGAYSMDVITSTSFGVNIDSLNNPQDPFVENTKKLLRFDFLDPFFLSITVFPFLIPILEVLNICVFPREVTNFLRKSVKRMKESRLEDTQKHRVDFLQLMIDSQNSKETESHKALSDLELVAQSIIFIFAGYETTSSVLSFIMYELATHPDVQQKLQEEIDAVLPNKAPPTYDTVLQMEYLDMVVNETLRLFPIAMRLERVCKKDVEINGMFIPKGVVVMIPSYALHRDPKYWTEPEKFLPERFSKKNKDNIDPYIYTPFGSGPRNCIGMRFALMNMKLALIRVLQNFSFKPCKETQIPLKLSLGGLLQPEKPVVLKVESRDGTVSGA
Chain of P-glycoprotein (P08183 whole entry): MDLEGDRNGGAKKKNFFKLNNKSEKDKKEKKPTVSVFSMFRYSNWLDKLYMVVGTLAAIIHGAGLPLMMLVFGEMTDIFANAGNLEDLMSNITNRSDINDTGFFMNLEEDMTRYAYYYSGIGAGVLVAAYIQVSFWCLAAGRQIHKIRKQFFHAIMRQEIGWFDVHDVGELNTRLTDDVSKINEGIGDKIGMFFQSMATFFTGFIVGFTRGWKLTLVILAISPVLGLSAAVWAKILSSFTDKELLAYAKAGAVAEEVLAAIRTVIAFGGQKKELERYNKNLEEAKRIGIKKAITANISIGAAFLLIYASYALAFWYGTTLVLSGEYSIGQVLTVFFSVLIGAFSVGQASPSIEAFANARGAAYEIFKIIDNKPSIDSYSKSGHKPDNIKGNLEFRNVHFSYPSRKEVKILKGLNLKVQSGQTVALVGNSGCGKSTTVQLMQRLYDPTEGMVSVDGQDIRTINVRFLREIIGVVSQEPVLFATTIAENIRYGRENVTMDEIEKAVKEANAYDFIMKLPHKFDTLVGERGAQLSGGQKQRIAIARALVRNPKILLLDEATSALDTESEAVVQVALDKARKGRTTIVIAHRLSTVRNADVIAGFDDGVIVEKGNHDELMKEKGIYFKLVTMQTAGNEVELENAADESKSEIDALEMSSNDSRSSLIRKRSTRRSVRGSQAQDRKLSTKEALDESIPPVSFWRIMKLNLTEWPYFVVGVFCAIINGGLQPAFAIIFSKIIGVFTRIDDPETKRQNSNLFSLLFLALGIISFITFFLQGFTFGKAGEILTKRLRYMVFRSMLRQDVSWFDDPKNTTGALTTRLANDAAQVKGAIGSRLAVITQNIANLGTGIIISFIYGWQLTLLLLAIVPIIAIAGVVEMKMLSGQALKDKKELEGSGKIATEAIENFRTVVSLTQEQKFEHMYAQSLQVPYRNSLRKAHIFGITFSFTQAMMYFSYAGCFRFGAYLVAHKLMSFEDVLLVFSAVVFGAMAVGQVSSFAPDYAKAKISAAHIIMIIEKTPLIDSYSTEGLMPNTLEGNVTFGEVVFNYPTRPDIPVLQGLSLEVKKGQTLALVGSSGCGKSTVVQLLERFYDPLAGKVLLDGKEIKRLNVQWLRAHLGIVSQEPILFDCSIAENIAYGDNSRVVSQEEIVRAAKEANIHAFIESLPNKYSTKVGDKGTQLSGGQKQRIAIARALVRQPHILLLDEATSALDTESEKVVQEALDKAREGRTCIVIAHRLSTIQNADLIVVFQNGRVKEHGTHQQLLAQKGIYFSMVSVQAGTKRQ

COc1cc(/C=C/C(=O)CC(=O)/C=C/c2ccc(O)c(OC)c2)ccc1O [curcumin]
m-spike / M-IgG serum concentration, response to treatment (serum immunoglobulin; [3]): did not react to treatment | objective responses [1]: no objective responses | clinical benefit (bone marrow plasma cell; 8000 mg to 14,000 mg daily, June 27 to December 26, 2007): without any clear benefit | BMPC values / progression (bone marrow plasma cell; [3]): did not prevent progression or cause a downward evolution of the BMPC nor the m-spike; also recorded: No clear benefit

O=C1CC[C@@]2(O)[C@H]3Cc4ccc(O)c5c4[C@@]2(CCN3CC2CC2)[C@H]1O5 [LDN]
IgG (serum immunoglobulin; serum, 12/26/07, LDN, diet): 30.0 g/L | M-IgG (serum immunoglobulin; serum, 12/26/07, LDN, diet): 20.5 g/L

CCN(CCO)CCCC(C)Nc1ccnc2cc(Cl)ccc12.O=S(=O)(O)O (centres unmarked) [Hydroxychloroquine, 2-[[4-[(7-Chloro-4-quinolyl)amino]pentyl]ethylamino] ethanol sulfate (1:1)]
soluble in water: at least 20% | risk of toxicity ([2]; after 5 to 7 years of use, or a cumulative dose of 1000 g): ~1% | dose considered safe ([2]; non-obese person (Marmor M et al., 2002)): 6.5 mg/kg/day

O=C(/C=C/C=C/c1ccc2c(c1)OCO2)N1CCCCC1 [piperine]
inhibition of P-glycoprotein (P-glycoprotein): inhibit | inhibition of human CYP3A4 (human CYP3A4): inhibit
